# Test results as given in ChEMBL document CHEMBL3885881, “DrugMatrix”.
# Species on record: Rattus norvegicus
# Experiment: DrugMatrix - Regimen: Daily Repeat
# Assay type: toxicity, organism-based, Sprague-Dawley
# Design: regimen Daily Repeat, gender Male, age 6-8 weeks
# Conditions: in vivo, po, 10 mg/kg, route oral GAVAGE, dose level Low, vehicle .5 % CMC; for ABSOLUTE BASOPHIL / ABSOLUTE EOSINOPHIL / ABSOLUTE LYMPHOCYTE / ABSOLUTE MONOCYTE / ABSOLUTE SEGMENTED NEUTROPHIL / BASOPHIL / EOSINOPHIL / ERYTHROCYTE COUNT / HEMATOCRIT / HEMOGLOBIN / LEUKOCYTE COUNT / LYMPHOCYTE / MEAN CORPUSCULAR HEMOGLOBIN / MEAN CORPUSCULAR HEMOGLOBIN CONCENTRATION / MEAN CORPUSCULAR VOLUME / MONOCYTE / NEUTROPHIL / NUCLEATED RED BLOOD CELLS / PLATELET COUNT: tissue Blood
# [1] = 72 h, tissue Plasma, time 3 day
# [2] = 120 h, tissue Plasma, time 5 day
compound,measurement,setting,value
CC(C)c1nc(CN(C)C(=O)N[C@H](C(=O)N[C@@H](Cc2ccccc2)C[C@H](O)[C@H](Cc2ccccc2)NC(=O)OCc2cncs2)C(C)C)cs1 [RITONAVIR],ABSOLUTE BASOPHIL,"72 h, time 3 day",0 CELLS/uL
same,ABSOLUTE EOSINOPHIL,"72 h, time 3 day",0 CELLS/uL
same,ABSOLUTE LYMPHOCYTE,"72 h, time 3 day",16363 CELLS/uL
same,ABSOLUTE MONOCYTE,"72 h, time 3 day",133.67 CELLS/uL
same,ABSOLUTE SEGMENTED NEUTROPHIL,"72 h, time 3 day",2103.33 CELLS/uL
same,BASOPHIL,"72 h, time 3 day",0%
same,EOSINOPHIL,"72 h, time 3 day",0%
same,ERYTHROCYTE COUNT,"72 h, time 3 day",5.55 x10E6/uL
same,HEMATOCRIT,"72 h, time 3 day",35.17%
same,HEMOGLOBIN,"72 h, time 3 day",13.33 G/DL
same,LEUKOCYTE COUNT,"72 h, time 3 day",18.6 x10E3/uL
same,LYMPHOCYTE,"72 h, time 3 day",88%
same,MEAN CORPUSCULAR HEMOGLOBIN,"72 h, time 3 day",24.03 pg
same,MEAN CORPUSCULAR HEMOGLOBIN CONCENTRATION,"72 h, time 3 day",37.93 G/DL
same,MEAN CORPUSCULAR VOLUME,"72 h, time 3 day",63.37 fL
same,MONOCYTE,"72 h, time 3 day",0.67%
same,NEUTROPHIL,"72 h, time 3 day",11.33%
same,NUCLEATED RED BLOOD CELLS,"72 h, time 3 day",0 /100WBC
same,PLATELET COUNT,"72 h, time 3 day",1318 x10E3/uL
same,ALANINE AMINOTRANSFERASE,[1],56.67 u/L
same,ALBUMIN,[1],4.1 G/DL
same,ALKALINE PHOSPHATASE,[1],325.33 u/L
same,ASPARTATE AMINOTRANSFERASE,[1],93.33 u/L
same,BLOOD UREA NITROGEN,[1],14 mg/dL
same,CARBON DIOXIDE,[1],29 mmol/L
same,CHLORIDE,[1],101 MEQ/L
same,CHOLESTEROL,[1],90.67 mg/dL
same,CREATINE PHOSPHOKINASE,[1],297.33 u/L
same,CREATININE,[1],0.23 mg/dL
same,GLUCOSE,[1],152 mg/dL
same,LACTATE DEHYDROGENASE,[1],319.33 u/L
same,LIPASE,[1],10.67 u/L
same,PHOSPHORUS,[1],12.83 mg/dL
same,POTASSIUM,[1],6.89 MEQ/L
same,SODIUM,[1],145.67 MEQ/L
same,TOTAL BILIRUBIN,[1],0.13 mg/dL
same,TOTAL PROTEIN,[1],5.77 G/DL
same,URIC ACID,[1],1.67 mg/dL
same,ABSOLUTE BASOPHIL,"120 h, time 5 day",0 CELLS/uL
same,ABSOLUTE EOSINOPHIL,"120 h, time 5 day",71.67 CELLS/uL
same,ABSOLUTE LYMPHOCYTE,"120 h, time 5 day",18278.33 CELLS/uL
same,ABSOLUTE MONOCYTE,"120 h, time 5 day",105.33 CELLS/uL
same,ABSOLUTE SEGMENTED NEUTROPHIL,"120 h, time 5 day",1678 CELLS/uL
same,BASOPHIL,"120 h, time 5 day",0%
same,EOSINOPHIL,"120 h, time 5 day",0.33%
same,ERYTHROCYTE COUNT,"120 h, time 5 day",6.19 x10E6/uL
same,HEMATOCRIT,"120 h, time 5 day",37%
same,HEMOGLOBIN,"120 h, time 5 day",13.97 G/DL
same,LEUKOCYTE COUNT,"120 h, time 5 day",20.13 x10E3/uL
same,LYMPHOCYTE,"120 h, time 5 day",90.33%
same,MEAN CORPUSCULAR HEMOGLOBIN,"120 h, time 5 day",22.63 pg
same,MEAN CORPUSCULAR HEMOGLOBIN CONCENTRATION,"120 h, time 5 day",37.73 G/DL
same,MEAN CORPUSCULAR VOLUME,"120 h, time 5 day",59.93 fL
same,MONOCYTE,"120 h, time 5 day",0.67%
same,NEUTROPHIL,"120 h, time 5 day",8.67%
same,NUCLEATED RED BLOOD CELLS,"120 h, time 5 day",0 /100WBC
same,PLATELET COUNT,"120 h, time 5 day",1433.33 x10E3/uL
same,ALANINE AMINOTRANSFERASE,[2],50.67 u/L
same,ALBUMIN,[2],4.4 G/DL
same,ALKALINE PHOSPHATASE,[2],359.67 u/L
same,ASPARTATE AMINOTRANSFERASE,[2],81.67 u/L
same,BLOOD UREA NITROGEN,[2],15.33 mg/dL
same,CARBON DIOXIDE,[2],27.67 mmol/L
same,CHLORIDE,[2],102 MEQ/L
same,CHOLESTEROL,[2],79.67 mg/dL
same,CREATINE PHOSPHOKINASE,[2],237 u/L
same,CREATININE,[2],0.21 mg/dL
same,GLUCOSE,[2],148.67 mg/dL
same,LACTATE DEHYDROGENASE,[2],188 u/L
same,LIPASE,[2],9.33 u/L
same,PHOSPHORUS,[2],13.17 mg/dL
same,POTASSIUM,[2],6.85 MEQ/L
same,SODIUM,[2],145.83 MEQ/L
same,TOTAL BILIRUBIN,[2],0.17 mg/dL
same,URIC ACID,[2],1.63 mg/dL
